Earlier results in patent US20050250788A1, “Aqueous outflow enhancement with vasodilated aqueous cavity” (priority 2004, published 2005).
Structures can show the parent of a compound that is named as a salt.

What was measured:
[1] = at low concentrations
[2] = chronic, patients with essential hypertension
[3] = not given; remark: listed apart in the source
[4] = for area under the plasma concentration time curve / mean peak plasma concentration (C(max)): multiple oral once-daily doses of 200 mg
[5] = placebo-controlled, normal volunteers
[6] = test system: adrenergic (alpha(1), alpha(2) and beta), cholinergic, GABA, dopaminergic, histaminergic, serotonergic (5-HT1A, 5-HT1B, 5-HT2) or benzodiazepine binding sites
[7] = not given; remark: listed apart in the source
[8] = test system: norepinephrine and dopamine neuronal reuptake
[9] = topical

In the case of `COc1ccccc1OCCNCC(O)c1ccc(C)c(S(N)(=O)=O)c1` (stereo not drawn) [5-[1-hydroxy-2-[2-(2-methoxyphenoxyl)ethylamino]ethyl]-2-methylbenzenesulfonamide], the “intraocular pressure reducing activity” value [1] is given as “excellent intraocular pressure reducing activity”.

In the case of `CC[C@@H]1C(=O)OC[C@@H]1Cc1cncn1C` [Pilocarpine], the “output of clear fluid after administration into a glaucomatous eye” value is listed as “increase the output of clear fluid”.

In the case of `COc1cc2nc(N3CCN(C(=O)c4ccco4)CC3)nc(N)c2cc1OC` [prazosin], the “decrease in mean arterial pressure compared with placebo baseline” value (“decrease in mean arterial pressure” below) [2] is given as “equivalent decreases”.

For `CN[C@H]1CC[C@@H](c2ccc(Cl)c(Cl)c2)c2ccccc21` [Sertraline hydrochloride, (1S-cis)-4-(3,4-dichlorophenyl)-1,2,3,4-tetrahydro-N-methyl-1-nanphthalenamine hydrochloride], the solubility in ethanol ([3]; ethanol) is listed as “sparingly soluble”, the “solubility in isopropyl alcohol” value ([3]; isopropyl alcohol) is listed as “slightly soluble” and the “solubility in water” value ([3]; water) is listed as “slightly soluble”.

For `C[C@H](CS)C(=O)N1CCC[C@H]1C(=O)O` [captopril], the “decrease in mean arterial pressure” value [2] is listed as “equivalent decreases”.

In the case of `N[C@H]1CC[C@@H](c2ccc(Cl)c(Cl)c2)c2ccccc21` [desmethylsertraline], the “elevation of plasma levels in the elderly” value ([4]; elderly, following multiple dosing) is listed as 3 fold, the half-life ([4]; metabolite, multiple oral once-daily doses of 200 mg sertraline) is listed as 65 h and the “area under the plasma concentration time curve” value [4] is listed as 2300 ng·h/mL. For the same molecule, the “mean peak plasma concentration (C(max))” value [4] was 140 ng/mL.

For `CN[C@H]1CC[C@@H](c2ccc(Cl)c(Cl)c2)c2ccccc21` [sertraline], the psychomotor performance [5] is given as “did not interfere with psychomotor performance”, the sedation [5] is given as “did not cause sedation” and the “affinity for binding sites” value [6] is given as “no significant affinity”. The dose proportionality ([4]; clinical dose range of 50 to 200 mg/day) was “Linear dose proportionality”, the “area under the plasma concentration time curve” value [4] was 2800 ng·h/mL and the “mean peak plasma concentration (C(max))” value [4] was 190 ng/mL. The “increase of bioavailability by food” value ([4]; oral, with food) was “about 40%”, the “average terminal elimination half-life” value ([4]; single or multiple oral once-daily doses of 50 to 400 mg/day) was “approximately 26 hours” and the plasma protein bound [7] was “Approximately 98%”. For the same molecule, the “effects on norepinephrine and dopamine neuronal reuptake” value [8] was “only very weak effects”.

For `CC(N/C(=N\C#N)Nc1ccncc1)C(C)(C)C` (stereo not drawn) [pinacidil], the “decrease in mean arterial pressure” value [2] is given as “equivalent decreases”.

In the case of cyclosporin-A, the “post-surgical increases in intraocular pressure” value [9] is listed as “reduce post-surgical increases in intraocular pressure”.

In the case of `CNC(=O)Oc1ccc2c(c1)[C@]1(C)CCN(C)[C@@H]1N2C` [eserine], the “output of clear fluid after administration into a glaucomatous eye” value is given as “increase the output of clear fluid”.
